Results on 1 compound are retold here after patent US9856273B2, “ETP derivatives” (priority 2012, dated 2018).

The test system of data set [1] is Panc1 pancreatic cancer cell line. Briefly: MTS assay. Format: cell-based. The following applies: Homo sapiens, PANC-1; Panc1, 48 h. On the procedure: (§1) MTS Assay: Panc1, BxPC3, or SU.86.86 cells were seeded in a 96-well plate at a density of 7500 cells/well prior to treatment with increasing amounts of ETP69 or DMSO vehicle control. Forty-eight hours post treatment cells were incubated with the MTS substrate (CellTiter 96 AQueous One Solution Cell Proliferation Assay, Promega, Madison, Wis.) according to the manufacturer's instructions. The absorbance was measured at 490 nm using a 96-well plate reader (Synergy 4, Biotek), and the data were normalized to the absorbance of DMSO-treated cells. IC50 values were determined using GraphPad Prism's non-linear regression function. See FIGS. 11, 21, 22A, 22B, 23, 24A, 24B, 24C, 25A and 25B.

In data set [2] the test system is BxPC3 pancreatic cancer cell line. Kind of data set: MTS assay. Format: cell-based. On the procedure: as §1
In general terms: Formazan colour is commonly taken as a measure of viable cells.

A short description of data set [3]: Toxicity on intraperitoneal injection or oral administration. The following applies: up to 20 mg/kg, intraperitoneal injection (IP) or oral administration.
For data set [4], the system named is transferases (HMT, HAT, DNMT). Briefly: Screen against a number of transferases. The format is biochemical, human. On the procedure: For histone methyltranferase (HMT), DNA methyltransferase (DNMT) and Histone acetyltransferase (HAT) assays in vitro, human recombinant HMT, DNMT and HAT proteins were mixed with substrates in the reaction buffer (50 mM Tris-HCl (pH 8.5), 5 mM MgCl2, 50 mM NaCl, 1 mM DTT, 1 mM PMSF, 1% DMSO), including histone H3, histone H4, nucleosomes, or core histone. Racemic ETP69, S enantiomer or DMSO as a vehicle control was preincubated in the mixture. Next, for HMTs and DNMT assays, […] of ^3H-SAM was added to the mixture for the reaction initiation and conversion of ^3H-SAM+histone L-lysine to SAH+histone N^6-[methyl-^3H]-L-lysine was monitored with miniatured radioligand-filter binding platform. For p300 HAT assays, the conversion of acetyl-^3H-acetyl coenzyme A to coenzyme A was monitored. The reactions were carried out at 30° C. IC50 values were determined using Excel and GraphPad Prism software.

Data set [5] deals with MDA-MB-231 triple negative breast cancer cells. Briefly: Cell viability assay. Format: cell-based.
The subject of data set [6] is HCC1937 triple negative breast cancer cells. Briefly: Cell viability assay. The format is cell-based.
The test system of data set [7] is SKOV3 ovarian cancer cells. Briefly: Annexin V-FITC apoptosis assay. Format: cell-based, human. The following applies: 48 h. On the procedure: Apoptosis Determinations (FIG. 11): Apoptosis assays of human SKOV3 ovarian cancer cells based on […] were carried out using Annexin V-FITC. Briefly, cells were seeded in 6-well plates, incubated overnight at 37° C. in 5% (v/v) CO2 and exposed to ETP69 in a dose-dependent manner for 48 h. DMSO was used as the vehicle control. Cells were analyzed using a FACScan flow cytometer to quantify fluorescence. Apoptotic cells were defined as Annexin V-FITC positive. Each experiment was performed in quadruplicate.

For data set [8], the system named is HepG2 hepatocellular carcinoma cells. Briefly: MTS cell viability assay. The following applies: Homo sapiens. The format is cell-based.

Each structure is given as a SMILES string.

Broadly, the IC50 is the concentration at which inhibition is half-maximal. For `CN1C(=O)[C@@]23C[C@](C)(C#N)[C@H](c4ccc5c(c4)OCO5)N2C(=O)[C@]1(C)SS3` (racemic) [ETP69, Rac-(3S,6S,7S,8aS)-6-(Benzo[d][1,3]dioxol-5-yl)-2,3,7-trimethyl-1,4-dioxohexahydro-6H-3,8a-epidithiopyrrolo[1,2-a]pyrazine-7-carbonitrile], the IC50 in data set [1] came out at 824 nM; in data set [2] (Homo sapiens, BXPC-3, BxPC3, 48 h) it was 210 nM; in data set [8], 13.8 nM. The killing of cells entry in data set [2] (BxPC3, 100 nM to 1000 nM) is on record as “significant killing”. Further, the toxicity result in data set [3] is recorded as “no significant toxicity”. The “potency against several transferases compared with chaetocin” value in data set [4] is reported as “about ten times more potency”. Besides, the “selectivity for histone methyltransferases (SUV39H1; G9a) over histone acetylases (p300) and DNA methyl transferases (DNMT1)” value in data set [4] was “selective”. The viability inhibition result in data set [5] and in data set [6] was “viability inhibition” in each case. The apoptosis result in data set [7] is on record as “induces apoptosis”.
